Assay: xn = mol fraction of the nth substance listed
Conditions: Fluid (supercritical or subcritical phases), vibrating tube

CCCCCO [pentan-1-ol] + O=C=O
Conditions	mass density [kg/m3]
323.11 K, 21027 kPa, x2 = 0.1347	813.66
323.11 K, 21051 kPa, x2 = 0.6054	847.84
323.11 K, 22019 kPa, x2 = 0.6054	849.47
323.11 K, 22027 kPa, x2 = 0.1347	814.42
323.11 K, 23017 kPa, x2 = 0.1347	815.16
323.11 K, 23023 kPa, x2 = 0.6054	851.13
323.11 K, 24022 kPa, x2 = 0.1347	815.93
323.11 K, 24036 kPa, x2 = 0.6054	852.76
323.11 K, 24999 kPa, x2 = 0.1347	816.68
323.11 K, 25069 kPa, x2 = 0.6054	854.41
332.79 K, 493 kPa, x2 = 0	784.29
332.79 K, 1014 kPa, x2 = 0	784.76
332.79 K, 2006 kPa, x2 = 0	785.61
332.79 K, 3025 kPa, x2 = 0	786.48
332.79 K, 4011 kPa, x2 = 0	787.28
332.79 K, 5020 kPa, x2 = 0	788.11
332.79 K, 6003 kPa, x2 = 0	788.91
332.79 K, 6997 kPa, x2 = 0	789.73
332.79 K, 8009 kPa, x2 = 0	790.54
332.79 K, 8995 kPa, x2 = 0	791.31
332.79 K, 9996 kPa, x2 = 0	792.12
332.79 K, 11018 kPa, x2 = 0	792.9
332.79 K, 11995 kPa, x2 = 0	793.66
332.79 K, 13023 kPa, x2 = 0	794.45
332.79 K, 13999 kPa, x2 = 0	795.19
332.79 K, 15010 kPa, x2 = 0	795.95
332.79 K, 16028 kPa, x2 = 0	796.68
332.79 K, 17003 kPa, x2 = 0	797.41
332.79 K, 18040 kPa, x2 = 0	798.14
332.79 K, 19004 kPa, x2 = 0	798.84
332.79 K, 20035 kPa, x2 = 0	799.59
332.79 K, 21024 kPa, x2 = 0	800.29
332.79 K, 21993 kPa, x2 = 0	800.97
332.79 K, 23039 kPa, x2 = 0	801.71
332.79 K, 24015 kPa, x2 = 0	802.4
332.79 K, 25022 kPa, x2 = 0	803.12
332.93 K, 8022 kPa, x2 = 0.3624	806.47
332.93 K, 9003 kPa, x2 = 0.3624	807.66
332.93 K, 9033 kPa, x2 = 0.4651	808.88
332.93 K, 10018 kPa, x2 = 0.3624	808.86
332.93 K, 10027 kPa, x2 = 0.4651	810.57
332.93 K, 10989 kPa, x2 = 0.3624	809.94
332.93 K, 11000 kPa, x2 = 0.4651	812.22
332.93 K, 12008 kPa, x2 = 0.3624	811.14
332.93 K, 12019 kPa, x2 = 0.4651	813.92
332.93 K, 12032 kPa, x2 = 0.8067	770.68
332.93 K, 12989 kPa, x2 = 0.9757	593.78
332.93 K, 12995 kPa, x2 = 0.8067	780.67
332.93 K, 13015 kPa, x2 = 0.3624	812.22
332.93 K, 13017 kPa, x2 = 0.4651	815.52
332.93 K, 13981 kPa, x2 = 0.3624	813.29
332.93 K, 13992 kPa, x2 = 0.9757	633.72
332.93 K, 14013 kPa, x2 = 0.8067	788.98
332.93 K, 14027 kPa, x2 = 0.4651	817.14
332.93 K, 15014 kPa, x2 = 0.9757	664.21
332.93 K, 15021 kPa, x2 = 0.3624	814.39
332.93 K, 15023 kPa, x2 = 0.4651	818.68
332.93 K, 15025 kPa, x2 = 0.8067	796.09
332.93 K, 15992 kPa, x2 = 0.3624	815.41
332.93 K, 16007 kPa, x2 = 0.4651	820.18
332.93 K, 16011 kPa, x2 = 0.9757	687.95
332.93 K, 16021 kPa, x2 = 0.8067	802.3
332.93 K, 17012 kPa, x2 = 0.3624	816.44
332.93 K, 17014 kPa, x2 = 0.4651	821.68
332.93 K, 17021 kPa, x2 = 0.8067	808.04
332.93 K, 17022 kPa, x2 = 0.9757	707.96
332.93 K, 18010 kPa, x2 = 0.3624	817.48
332.93 K, 18021 kPa, x2 = 0.8067	813.35
332.93 K, 18021 kPa, x2 = 0.9757	724.84
332.93 K, 18040 kPa, x2 = 0.4651	823.21
332.93 K, 19008 kPa, x2 = 0.9757	739.5
332.93 K, 19011 kPa, x2 = 0.8067	818.27
332.93 K, 19015 kPa, x2 = 0.4651	824.63
332.93 K, 19032 kPa, x2 = 0.3624	818.5
332.93 K, 19997 kPa, x2 = 0.3624	819.44
332.93 K, 20022 kPa, x2 = 0.8067	822.95
332.93 K, 20026 kPa, x2 = 0.4651	826.05
332.93 K, 20041 kPa, x2 = 0.9757	753.18
332.93 K, 21019 kPa, x2 = 0.4651	827.43
332.93 K, 21021 kPa, x2 = 0.9757	764.86
332.93 K, 21024 kPa, x2 = 0.3624	820.43
332.93 K, 21029 kPa, x2 = 0.8067	827.4
332.93 K, 21989 kPa, x2 = 0.8067	831.41
332.93 K, 21997 kPa, x2 = 0.4651	828.79
332.93 K, 22013 kPa, x2 = 0.3624	821.46
332.93 K, 22013 kPa, x2 = 0.9757	775.63
332.93 K, 23008 kPa, x2 = 0.8067	835.47
332.93 K, 23021 kPa, x2 = 0.3624	822.42
332.93 K, 23031 kPa, x2 = 0.4651	830.22
332.93 K, 23997 kPa, x2 = 0.3624	823.36
332.93 K, 24024 kPa, x2 = 0.4651	831.62
332.93 K, 24893 kPa, x2 = 0.3624	824.24
332.95 K, 13016 kPa, x2 = 0.8573	754.58
332.95 K, 13026 kPa, x2 = 0.9216	704.11
332.95 K, 14021 kPa, x2 = 0.9216	723.65
332.95 K, 14042 kPa, x2 = 0.8573	766.56
332.95 K, 15016 kPa, x2 = 0.9216	739.26
332.95 K, 15028 kPa, x2 = 0.8573	776.2
332.95 K, 15984 kPa, x2 = 0.9216	752.12
332.95 K, 16013 kPa, x2 = 0.8573	784.6
332.95 K, 17014 kPa, x2 = 0.8573	792.22
332.95 K, 17039 kPa, x2 = 0.9216	764.27
332.95 K, 18011 kPa, x2 = 0.8573	799.17
332.95 K, 18019 kPa, x2 = 0.9216	774.24
332.95 K, 19005 kPa, x2 = 0.9216	783.37
332.95 K, 19027 kPa, x2 = 0.8573	805.67
332.95 K, 20006 kPa, x2 = 0.8573	811.5
332.95 K, 20008 kPa, x2 = 0.9216	791.89
332.95 K, 20996 kPa, x2 = 0.8573	817.04
332.95 K, 21037 kPa, x2 = 0.9216	799.89
332.95 K, 21691 kPa, x2 = 0.9216	804.69
332.95 K, 22056 kPa, x2 = 0.8573	822.62
332.95 K, 23032 kPa, x2 = 0.8573	827.46
332.95 K, 24010 kPa, x2 = 0.8573	832.11
332.96 K, 3007 kPa, x2 = 0.0816	789.68
332.96 K, 4028 kPa, x2 = 0.0816	790.6
332.96 K, 4991 kPa, x2 = 0.0816	791.47
332.96 K, 5998 kPa, x2 = 0.0816	792.36
332.96 K, 7025 kPa, x2 = 0.0816	793.27
332.96 K, 7995 kPa, x2 = 0.0816	794.13
332.96 K, 9031 kPa, x2 = 0.0816	795.01
332.96 K, 10005 kPa, x2 = 0.0816	795.83
332.96 K, 11008 kPa, x2 = 0.0816	796.67
332.96 K, 12026 kPa, x2 = 0.0816	797.53

Reference: the NIST ThermoML archive (doi:10.1016/j.jct.2007.07.005)
